# Measurements reported in ChEMBL document CHEMBL5260810, “Inhibition of bromodomain-containing protein 9 for the prevention of epigenetically-defined drug resistance” (Bioorg Med Chem Lett, 2017).
# What was measured:
# Format in all cases: functional, cell-based
# KLE = experiment: Cytotoxicity against human KLE cells measured after 8 days; conditions: 192 h
# ML-2 = experiment: Cytotoxicity against human ML-2 cells measured after 8 days; conditions: ML-2, 192 h
# T84 = experiment: Cytotoxicity against human T84 cells measured after 8 days; conditions: T84, 192 h
# [1] = Cytotoxicity against human NCE-G 28T cells measured after 8 days; conditions: 192 h
# CAL-148 = experiment: Cytotoxicity against human CAL-148 cells measured after 8 days; conditions: CAL-148, 192 h
# [2] = Cytotoxicity against human NCI-H196 cells measured after 8 days; conditions: NCI-H196, 192 h
# COR-L88 = experiment: Cytotoxicity against human COR-L88 cells measured after 8 days; conditions: COR-L88, 192 h
# [3] = Cytotoxicity against human KATO III stomach cancer cell line measured after 8 days; conditions: 192 h
# COLO-829 = experiment: Cytotoxicity against human COLO-829 cells measured after 8 days; conditions: COLO-829, 192 h
# [4] = Cytotoxicity against human NCE-G 112 cells measured after 8 days; conditions: NCE-G 112, 192 h
# [5] = Cytotoxicity against human KNS-81 cells measured after 8 days; conditions: KNS-81, 192 h
# L-363 = experiment: Cytotoxicity against human L-363 cells measured after 8 days; conditions: L-363, 192 h
# [6] = Cytotoxicity against mouse ID8 cells measured after 8 days; conditions: ID8, 192 h
# [7] = Cytotoxicity against human COV413B cells measured after 8 days; conditions: 192 h
# KYSE-70 cell line = experiment: Cytotoxicity against human KYSE-70 cell line measured after 8 days; conditions: KYSE-70, 192 h
# [8] = Cytotoxicity against human NCI-H2804 cells measured after 8 days; conditions: NCI-H2804, 192 h
# CaR-1 = experiment: Cytotoxicity against human CaR-1 cells measured after 8 days; conditions: CaR-1, 192 h
# SNU-398 = experiment: Cytotoxicity against human SNU-398 cells measured after 8 days; conditions: SNU-398, 192 h
# [9] = Cytotoxicity against human HEC-116 cells measured after 8 days; conditions: HEC-116, 192 h
# [10] = Cytotoxicity against human KLM-1 cells measured after 8 days; conditions: KLM1, 192 h
# SJRH30 = experiment: Cytotoxicity against human SJRH30 cells measured after 8 days; conditions: SJRH30, 192 h
# [11] = Cytotoxicity against human NCE-G 22 cells measured after 8 days; conditions: NCE-G 22, 192 h
# PaTu 8988t = experiment: Cytotoxicity against human PaTu 8988t cells measured after 8 days; conditions: 192 h
# Karpas-1106P = experiment: Cytotoxicity against human KARPAS-1106P cells measured after 8 days; conditions: 192 h
# C32 = experiment: Cytotoxicity against human C32 cells measured after 8 days; conditions: C32, 192 h
# BT-20 = experiment: Cytotoxicity against human BT-20 cells measured after 8 days; conditions: BT-20, 192 h
# [12] = Cytotoxicity against human Kelly cells measured after 8 days; conditions: 192 h
# COR-L279 = experiment: Cytotoxicity against human COR-L279 cells measured after 8 days; conditions: COR-L279, 192 h
# A 172 = experiment: Cytotoxicity against human A-172 cells measured after 8 days; conditions: A 172, 192 h
# [13] = Cytotoxicity against mouse Clone M-3 cells measured after 8 days; conditions: Clone M-3, 192 h
# SK-OV-3 = experiment: Cytotoxicity against human SK-OV-3 cells measured after 8 days; conditions: SK-OV-3, 192 h
# Ishikawa = experiment: Cytotoxicity against human Ishikawa cells measured after 8 days; conditions: 192 h
# SU-DHL10 = experiment: Cytotoxicity against human SU-DHL-10 cells measured after 8 days; conditions: SU-DHL10, 192 h
# MIA PaCa-2 = experiment: Cytotoxicity against human MIA Paca-2 cells measured after 8 days; conditions: MIA PaCa-2, 192 h
# CAL-27 = experiment: Cytotoxicity against human CAL-27 cells measured after 8 days; conditions: CAL-27, 192 h
# LS174T = experiment: Cytotoxicity against human LS174T cells measured after 8 days; conditions: 192 h
# SU.86.86 = experiment: Cytotoxicity against human SU-86-86 cells measured after 8 days; conditions: SU.86.86, 192 h
# [14] = Cytotoxicity against human HEC-151 cells measured after 8 days; conditions: HEC-151, 192 h
# Panc1005 = experiment: Cytotoxicity against human Panc1005 cells measured after 8 days; conditions: Panc1005, 192 h
# [15] = Cytotoxicity against human KMS-34 cells measured after 8 days; conditions: KMS-34, 192 h
# MDA-MB-453 = experiment: Cytotoxicity against human MDA-MB-453 cells measured after 8 days; conditions: MDA-MB-453, 192 h
# SW837 = experiment: Cytotoxicity against human SW837 cells measured after 8 days; conditions: SW837, 192 h
# [16] = Cytotoxicity against human HEC-6 cells measured after 8 days; conditions: HEC-6, 192 h
# BXPC-3 = experiment: Cytotoxicity against human BXPC-3 cells measured after 8 days; conditions: BXPC-3, 192 h
# [17] = Cytotoxicity against mouse AE17 cells measured after 8 days; conditions: AE17, 192 h
# EJM = experiment: Cytotoxicity against human EJM cells measured after 8 days; conditions: 192 h
# [18] = Cytotoxicity against human BM-1604 cells measured after 8 days; conditions: BM-1604, 192 h
# [19] = Cytotoxicity against human VMRC-RCW cells measured after 8 days; conditions: 192 h
# MG-63 = experiment: Cytotoxicity against human MG-63 cells measured after 8 days; conditions: MG-63, 192 h
# Renca = experiment: Cytotoxicity against mouse Renca cells measured after 8 days; conditions: 192 h
# KYSE-180 = experiment: Cytotoxicity against human KYSE-180 cells measured after 8 days; conditions: KYSE-180, 192 h
# [20] = Cytotoxicity against human Panc 04.03 cells measured after 8 days; conditions: Panc 04.03, 192 h
# OCI-Ly10 = experiment: Cytotoxicity against human OCI-Ly10 cells measured after 8 days; conditions: OCI-Ly10, 192 h
# MeWo = experiment: Cytotoxicity against human MeWo cells measured after 8 days; conditions: 192 h
# OVCAR-3 = experiment: Cytotoxicity against human OVCAR-3 cells measured after 8 days; conditions: OVCAR-3, 192 h
# COLO-800 = experiment: Cytotoxicity against human COLO-800 cells measured after 8 days; conditions: COLO-800, 192 h
# [21] = Cytotoxicity against human KPP14449 cells measured after 8 days; conditions: KPP14449, 192 h
# NCI-H716 = experiment: Cytotoxicity against human NCI-H716 cells measured after 8 days; conditions: NCI-H716, 192 h
# [22] = Cytotoxicity against human MOLP8 cells measured after 8 days; conditions: MOLP-8, 192 h
# [23] = Cytotoxicity against human PK-1 cells measured after 8 days; conditions: PK-1, 192 h
# BCPAP = experiment: Cytotoxicity against human BCPAP cells measured after 8 days; conditions: 192 h
# [24] = Cytotoxicity against human SNU-668 cells measured after 8 days; conditions: SNU668, 192 h
structure (smiles),measurement,setting,value
C/C=C/Cn1cc(-c2ccc(C(=O)N3CCOCC3)cc2)c2cc[nH]c2c1=O,IC50,KLE,20 µM
same,IC50,ML-2,20 µM
same,IC50,T84,20 µM
same,IC50,[1],20 µM
same,IC50,CAL-148,20 µM
same,IC50,[2],20 µM
same,IC50,COR-L88,20 µM
same,IC50,[3],20 µM
same,IC50,COLO-829,20 µM
same,IC50,[4],20 µM
same,IC50,[5],20 µM
same,IC50,L-363,10.4 µM
same,IC50,[6],20 µM
same,IC50,[7],20 µM
same,IC50,KYSE-70 cell line,20 µM
same,IC50,[8],20 µM
same,IC50,CaR-1,20 µM
same,IC50,SNU-398,20 µM
same,IC50,[9],20 µM
same,IC50,[10],20 µM
same,IC50,SJRH30,20 µM
same,IC50,[11],20 µM
same,IC50,PaTu 8988t,20 µM
same,IC50,Karpas-1106P,12.2 µM
same,IC50,C32,20 µM
same,IC50,BT-20,20 µM
same,IC50,[12],20 µM
same,IC50,COR-L279,20 µM
same,IC50,A 172,20 µM
same,IC50,[13],20 µM
same,IC50,SK-OV-3,20 µM
same,IC50,Ishikawa,20 µM
same,IC50,SU-DHL10,20 µM
same,IC50,MIA PaCa-2,20 µM
same,IC50,CAL-27,20 µM
same,IC50,LS174T,20 µM
same,IC50,SU.86.86,20 µM
same,IC50,[14],20 µM
same,IC50,Panc1005,20 µM
same,IC50,[15],15.3 µM
same,IC50,MDA-MB-453,20 µM
same,IC50,SW837,20 µM
same,IC50,[16],20 µM
same,IC50,BXPC-3,20 µM
same,IC50,[17],18.1 µM
same,IC50,EJM,20 µM
same,IC50,[18],20 µM
same,IC50,[19],20 µM
same,IC50,MG-63,20 µM
same,IC50,Renca,20 µM
same,IC50,KYSE-180,20 µM
same,IC50,[20],20 µM
same,IC50,OCI-Ly10,20 µM
same,IC50,MeWo,20 µM
same,IC50,OVCAR-3,20 µM
same,IC50,COLO-800,20 µM
same,IC50,[21],20 µM
same,IC50,NCI-H716,20 µM
same,IC50,[22],18.3 µM
same,IC50,[23],20 µM
same,IC50,BCPAP,20 µM
same,IC50,[24],20 µM
C/C=C/Cn1cc(-c2ccc(C(C)(C)O)cc2OC)c2cc[nH]c2c1=O,IC50,KLE,20 µM
same,IC50,ML-2,20 µM
same,IC50,T84,20 µM
same,IC50,[1],20 µM
same,IC50,CAL-148,20 µM
same,IC50,[2],20 µM
same,IC50,COR-L88,20 µM
same,IC50,[3],20 µM
same,IC50,COLO-829,20 µM
same,IC50,[4],20 µM
same,IC50,[5],20 µM
same,IC50,L-363,20 µM
same,IC50,[6],20 µM
same,IC50,[7],20 µM
same,IC50,KYSE-70 cell line,20 µM
same,IC50,[8],20 µM
same,IC50,CaR-1,20 µM
same,IC50,SNU-398,20 µM
same,IC50,[9],20 µM
same,IC50,[10],20 µM
same,IC50,SJRH30,20 µM
same,IC50,[11],20 µM
same,IC50,PaTu 8988t,20 µM
same,IC50,Karpas-1106P,8.61 µM
same,IC50,C32,20 µM
same,IC50,BT-20,20 µM
same,IC50,[12],20 µM
same,IC50,COR-L279,20 µM
same,IC50,A 172,20 µM
same,IC50,[13],20 µM
same,IC50,SK-OV-3,20 µM
same,IC50,Ishikawa,20 µM
same,IC50,SU-DHL10,10.9 µM
same,IC50,MIA PaCa-2,20 µM
same,IC50,CAL-27,20 µM
same,IC50,LS174T,20 µM
same,IC50,SU.86.86,20 µM
same,IC50,[14],20 µM
same,IC50,Panc1005,20 µM
same,IC50,[15],20 µM
same,IC50,MDA-MB-453,20 µM
same,IC50,SW837,20 µM
same,IC50,[16],20 µM
same,IC50,BXPC-3,20 µM
same,IC50,[17],20 µM
same,IC50,EJM,20 µM
same,IC50,[18],20 µM
same,IC50,[19],20 µM
same,IC50,MG-63,7.4 µM
same,IC50,Renca,20 µM
same,IC50,KYSE-180,20 µM
same,IC50,[20],20 µM
same,IC50,OCI-Ly10,20 µM
same,IC50,MeWo,20 µM
same,IC50,OVCAR-3,20 µM
same,IC50,COLO-800,20 µM
same,IC50,[21],20 µM
same,IC50,NCI-H716,20 µM
same,IC50,[22],20 µM
same,IC50,[23],20 µM
same,IC50,BCPAP,20 µM
same,IC50,[24],20 µM
